Measured values from patent US20220273590A1, “COMPOUNDS FOR PREVENTION AND TREATMENT OF POST-OPERATIVE COGNITIVE DYSFUNCTION” (ABREXA PHARMACEUTICALS, INC., priority 2019, published 2022).
“And” between values parts separate entries of the source, which are not always exact repeats. Equal entries are not always repeated. Where two headings read alike, the source gives them in different places.

Key:
[1] = Pharmacokinetic plasma parameters of J147, oral and intravascular administration; assay type: in vivo, Adult Wister Rats; conditions: for FInf: calculated based on AUCInf; for Flast: calculated based on AUClast
Experimental: (§1) Plasma samples obtained during surgery in J147-treated rats and 3 control rats were measured for circulating levels of J147. Results of pharmacokinetic measures of both plasma and brain levels of J147 in rats following oral administration of J147 in basis suspension at 20 mg/kg and also following intravascular administration at 5 mg/kg are shown in Table 2A-C below. When taking the absence of an appropriate peak as zero, mean concentration is 0 ng/ml in controls, 3.103 ng/ml in acutely treated rats and 0.233 ng/ml in chronically treated rats. J147 levels in food were verified as well (467 mg/kg). […] During the first 10 days after surgery and individual housing, rats on the diet ate on average 20±1 g, which was similar to the 20±1 g in surgery with control food and 23±1 g in non-surgery controls, verifying the anticipated intake of 10 mg J147/rat/day and further supporting no preference or aversion for the diet food.

[2] = Plasma levels of J147 after oral administration in Basis suspension; assay type: in vivo, Adult Wister Rats; conditions: oral 20 mg/kg in Basis suspension
Experimental: as §1
Tables 2A-2B. Pharmacokinetic Measures of Plasma and Brain Levels of J147 Formulated in Basis Suspension Administered Orally to Adult Wister Rats at 20mg/kg.

[3] = IV 5 mg/kg, 1 mg/mL in DMSO/PEG 200/Saline 5/70/25, individual animals (1148, 1154, 1156, 1158), 5 mg/kg
[4] = IV 5 mg/kg, individual animals (1148, 1154, 1156, 1158), 5 mg/kg
[5] = PO_A 20 mg/kg, 7 mg/mL in Basis, individual animals (1142, 1144, 1150, 1166), 20 mg/kg
[6] = PO_A 20 mg/kg, individual animals (1142, 1144, 1150, 1166), 20 mg/kg
[7] = Wistar, rat, plasma, iv, 5 mg/kg, IV 5 mg/kg, Mean of 4 animals
[8] = Wistar, rat, plasma, po, 20 mg/kg, PO_B (oral, Basis), Mean

Structure (SMILES): COc1cccc(/C=N/N(C(=O)C(F)(F)F)c2ccc(C)cc2C)c1 [J147]
- C0 [1, 3]: 4706 ng/mL and 384 ng/mL and 1572 ng/mL and 2509 ng/mL
- Cl_obs [1, 3]: 90.2 mL/min/kg and 98.9 mL/min/kg and 107 mL/min/kg
- Tmax [1, 3]: 4.98 min and 15 min
- t1/2 [1, 3]: 64.8 min and 57.8 min and 51.1 min
- AUC_% Ex Trap ([1]; IV 5 mg/kg, Mean of 4 animals): 1.58%
- Cl_obs ([1]; IV 5 mg/kg, Mean of 4 animals): 77.4 mL/min/kg
- vss_obs ([1]; IV 5 mg/kg, Mean of 4 animals): 5.18 L/kg
- AUCInf [1, 4]: 842 ng·h/mL and 631 ng·h/mL and 781 ng·h/mL
- AUC_% Ex Trap [1, 4]: 1.14% and 2.31% and 1.89% and 0.979%
- MRT [1, 4]: 55.6 min and 44.1 min and 34.3 min
- vss_obs [1, 4]: 3.39 L/kg and 6.41 L/kg and 6.82 L/kg and 4.07 L/kg
- AUClast ([1]; IV 5 mg/kg, last time point 6 h, Mean of 4 animals): 782 ng·mL·h
- AUClast ([1]; IV 5 mg/kg, last time point 6 h, individual animals (1148, 1154, 1156, 1158), 5 mg/kg): 913 ng·mL·h and 823 ng·mL·h and 619 ng·mL·h and 774 ng·mL·h
- Cmax [1, 5]: 29.0 ng/mL and 39.9 ng/mL and 36.5 ng/mL and 69.2 ng/mL
- t1/2 [1, 5]: 96.6 min and 70.8 min
- AUC_% Ex Trap ([1]; PO_A 20 mg/kg, Mean): 7.60%
- FInf ([1]; PO_A 20 mg/kg, Mean): 4.29%
- FInf [1, 6]: 2.64% and 2.72% and 7.50%
- Flast ([1]; PO_A 20 mg/kg, Mean): 3.61%
- Flast [1, 6]: 2.45% and 2.23% and 2.51% and 7.25%
- AUCInf [1, 6]: 82.5 ng·h/mL and 91.5 ng·h/mL and 189 ng·h/mL
- AUC_% Ex Trap [1, 6]: 7.91% and 9.72% and 5.17%
- AUClast ([1]; PO_A 20 mg/kg, last time point 6 h, Mean): 105 ng·mL·h
- AUClast ([1]; PO_A 20 mg/kg, last time point 6 h, individual animals (1142, 1144, 1150, 1166), 20 mg/kg): 76.0 ng·mL·h and 81.6 ng·mL·h and 82.6 ng·mL·h and 180 ng·mL·h
- AUC_% Ex Trap ([1]; PO_B (oral, Basis), Mean): 15.9%
- AUClast ([1]; PO_B (oral, Basis), last time point 4 h, Mean): 64.7 ng·mL·h
- half-life ([1]; Wistar, rat, plasma, iv, 5 mg/kg, IV 5 mg/kg, 1 mg/mL in DMSO/PEG 200/Saline 5/70/25, individual animals (1148, 1154, 1156, 1158)): 63.6 min
- AUC(0-inf) [1, 7]: 795 ng·h/mL
- half-life [1, 7]: 59.2 min
- C0 ([1]; Wistar, rat, plasma, iv, 5 mg/kg, IV 5 mg/kg, Mean of 4 animals, read-out: C0): 2290 ng/mL
- MRT ([1]; Wistar, rat, plasma, iv, 5 mg/kg, IV 5 mg/kg, Mean of 4 animals, read-out: MRT): 41.7 min
- Tmax ([1]; Wistar, rat, plasma, iv, 5 mg/kg, IV 5 mg/kg, Mean of 4 animals, read-out: tmax): 7.5 min
- AUC(0-inf) ([1]; Wistar, rat, plasma, iv, 5 mg/kg, IV 5 mg/kg, individual animals (1148, 1154, 1156, 1158)): 924 ng·h/mL
- MRT ([1]; Wistar, rat, plasma, iv, 5 mg/kg, IV 5 mg/kg, individual animals (1148, 1154, 1156, 1158), read-out: MRT): 32.8 min
- half-life ([1]; Wistar, rat, plasma, po, 20 mg/kg, PO_A 20 mg/kg, 7 mg/mL in Basis, Mean): 84.6 min
- Cmax ([1]; Wistar, rat, plasma, po, 20 mg/kg, PO_A 20 mg/kg, 7 mg/mL in Basis, Mean, read-out: Cmax): 43.7 ng/mL
- Tmax ([1]; Wistar, rat, plasma, po, 20 mg/kg, PO_A 20 mg/kg, 7 mg/mL in Basis, Mean, read-out: tmax): 52.8 min
- half-life ([1]; Wistar, rat, plasma, po, 20 mg/kg, PO_A 20 mg/kg, 7 mg/mL in Basis, individual animals (1142, 1144, 1150, 1166)): 87 min
- Tmax ([1]; Wistar, rat, plasma, po, 20 mg/kg, PO_A 20 mg/kg, 7 mg/mL in Basis, individual animals (1142, 1144, 1150, 1166), read-out: tmax): 60 min
- AUC(0-inf) ([1]; Wistar, rat, plasma, po, 20 mg/kg, PO_A 20 mg/kg, Mean): 121 ng·h/mL
- AUC(0-inf) [1, 8]: 76.9 ng·h/mL
- half-life [1, 8]: 85.2 min
- Cmax ([1]; Wistar, rat, plasma, po, 20 mg/kg, PO_B (oral, Basis), Mean, read-out: Cmax): 47.4 ng/mL
- Tmax ([1]; Wistar, rat, plasma, po, 20 mg/kg, PO_B (oral, Basis), Mean, read-out: tmax): 30 min
- concentration at 0.25 h ([2]; Wistar, rat, plasma, po, 20 mg/kg, 0.25 h, individual rats (Rat 10, 11, 12), read-out: Plasma Conc.): 1.29 ng/mL
- concentration at 0.25 h ([2]; Wistar, rat, plasma, po, 20 mg/kg, 0.25 h, mean of rats, read-out: Plasma Conc. Mean): 1.34 ng/mL
- concentration at 0.5 h ([2]; Wistar, rat, plasma, po, 20 mg/kg, 0.5 h, mean of rats, read-out: Plasma Conc. Mean): 3.94 ng/mL
- concentration at 1 h ([2]; Wistar, rat, plasma, po, 20 mg/kg, 1 h, individual rats (Rat 10, 11, 12), read-out: Plasma Conc.): 7.34 ng/mL
- concentration at 1 h ([2]; Wistar, rat, plasma, po, 20 mg/kg, 1 h, mean of rats, read-out: Plasma Conc. Mean): 8.19 ng/mL
- concentration at 2 h ([2]; Wistar, rat, plasma, po, 20 mg/kg, 2 h, individual rats (Rat 10, 11, 12), read-out: Plasma Conc.): 15.1 ng/mL
- concentration at 2 h ([2]; Wistar, rat, plasma, po, 20 mg/kg, 2 h, mean of rats, read-out: Plasma Conc. Mean): 15.8 ng/mL
- concentration at 4 h ([2]; Wistar, rat, plasma, po, 20 mg/kg, 4 h, mean of rats, read-out: Plasma Conc. Mean): 8.8 ng/mL
- concentration at 6 h ([2]; Wistar, rat, plasma, po, 20 mg/kg, 6 h, individual rats (Rat 10, 11, 12), read-out: Plasma Conc.): 3.14 ng/mL
- concentration at 6 h ([2]; Wistar, rat, plasma, po, 20 mg/kg, 6 h, mean of rats, read-out: Plasma Conc. Mean): 2.46 ng/mL
- concentration at 8 h ([2]; Wistar, rat, plasma, po, 20 mg/kg, 8 h, individual rats (Rat 10, 11, 12), read-out: Plasma Conc.): 0.822 ng/mL
- concentration at 8 h ([2]; Wistar, rat, plasma, po, 20 mg/kg, 8 h, mean of rats, read-out: Plasma Conc. Mean): 0.788 ng/mL
- Plasma Conc. ([2]; 0.25 h, individual rats (Rat 10, 11, 12), 20 mg/kg): BLOQ and 1.38 ng/mL
- Plasma Conc. ([2]; 0.5 h, individual rats (Rat 10, 11, 12), 20 mg/kg): 1.52 ng/mL and 5.77 ng/mL and 4.54 ng/mL
- Plasma Conc. ([2]; 1 h, individual rats (Rat 10, 11, 12), 20 mg/kg): 8.39 ng/mL and 8.83 ng/mL
- Plasma Conc. ([2]; 2 h, individual rats (Rat 10, 11, 12), 20 mg/kg): 16.9 ng/mL and 15.4 ng/mL
- Plasma Conc. ([2]; 4 h, individual rats (Rat 10, 11, 12), 20 mg/kg): 6.92 ng/mL and 6.35 ng/mL and 13.2 ng/mL
- Plasma Conc. ([2]; 6 h, individual rats (Rat 10, 11, 12), 20 mg/kg): 1.78 ng/mL and 2.47 ng/mL
- Plasma Conc. ([2]; 8 h, individual rats (Rat 10, 11, 12), 20 mg/kg): 0.654 ng/mL and 0.888 ng/mL
- Plasma Conc. ([2]; 12 h, individual rats (Rat 10, 11, 12)): BLOQ
- Plasma Conc. ([2]; 16 h, individual rats (Rat 10, 11, 12)): BLOQ
- Plasma Conc. ([2]; 20 h, individual rats (Rat 10, 11, 12)): BLOQ
- Plasma Conc. ([2]; 24 h, individual rats (Rat 10, 11, 12)): BLOQ
